Drawing on patent US12178842B2, “PCSK9 antagonist compounds” (MERCK SHARP & DOHME LLC, priority 2019, dated 2024), this text covers Ki for 13 compounds.

What all share (format): binding
Experiment [1] deals with T1, PCSK9 (Homo sapiens, UniProt Q8NBP7).
T1 construct: biotin (biotinylated); purchased
The experiment can be described thus: PCSK9 Alexa FRET Standard TR-FRET assay. As for the experimental part:
A solution containing 1 nM biotinylated PCSK9+2.5 nM Lance Streptavidin Europium (Strep-Eu) is made in 50 mM HEPES pH 7.4, 0.15 M NaCl, 5 mM CaCl2, 0.01% BSA, and 0.01% Surfactant P20. A separate solution containing 40 nM of the AlexaFluor tagged cyclic peptide is made in the same buffer system. An Echo is used to transfer 0.750 ul of compound to an assay plate followed by the addition of 15 ul of PCSK9+Stept-Eu and 15 ul of AF peptide. The final assay volume is 30.750 ul containing 0.5 nM PCSK9, 1.25 nM Strep-Eu, and 20 nM AF cyclic peptide. The reaction is incubated at room temperature for at least two hours prior to fluorescence measurements using an Envision Multilabel Reader. IC50 values are determined by fitting data to a sigmoidal dose-response curve using nonlinear regression. Ki is then calculated from the Ic50 and the KD of AF cyclic peptide. Counts (B-counts) of the europium-labeled PCSK9 are followed to observe if compounds are adversely PCSK9. A fall off of the B-counts likely indicates a false positive of inhibition. Data from this procedure is reported as “A=‘numerical value’ (nanomolar)”
(In TR-FRET formats the signal depends on donor and acceptor labels being close together.)

The target in experiment [2] is T1, PCSK9. The experiment can be described thus: PCSK9 Alexa FRET Plus TR-FRET assay. As for the experimental part:
A separate solution containing 1920 nM of the AlexaFluor tagged cyclic peptide is made in the same buffer system. […] The reaction is incubated at room temperature for at least two hours prior to fluorescence measurements using an Envision Multilabel Reader. IC50 values are determined by fitting data to a sigmoidal dose-response curve using nonlinear regression. Ki is then calculated from the Ic50 and the KD of AF cyclic peptide. Counts (B-counts) of the europium-labeled PCSK9 are followed to observe if compounds are adversely affecting PCSK9. A fall off of the B-counts is likely indicates a false positive of inhibition. Data from this procedure is reported as “P=‘numerical value’ (nanomolar)”

For experiment [3], the target named is T1, PCSK9. The experiment is described as follows: PCSK9 Alexa FRET Ultra TR-FRET assay. As for the experimental part: A separate solution containing 1920 nM of the AlexaFluor tagged cyclic peptide is made in the same buffer system. […] The reaction is incubated at room temperature for at least two hours prior to fluorescence measurements using an Envision Multilabel Reader. IC50 values are determined by fitting data to a sigmoidal dose-response curve using nonlinear regression. Ki is then calculated from the Ic50 and the KD of AF cyclic peptide. Counts (B-counts) of the europium-labeled PCSK9 are followed to observe if compounds are adversely affecting PCSK9. A fall off of the B-counts is likely indicates a false positive of inhibition. Data from this procedure is reported as “Ki Ultra=‘numerical value’ (data reported is nanomolar)”

Setting [4] is: Ki calculated from IC50 and KD of AF cyclic peptide Reagent A, 0.5 nM PCSK9, 20 nM AF cyclic peptide, read-out: Alexa FRET Stdt TR-FRET.
Where [5] appears, read: Ki calculated from IC50 and KD of AF cyclic peptide Reagent B, 0.5 nM PCSK9, 960 nM AF cyclic peptide, read-out: Alexa FRET Plus TR-FRET.
The mark [6] stands for this setting: Ki Ultra, calculated from IC50 and KD of AF cyclic peptide, 0.5 nM PCSK9, 960 nM AF cyclic peptide, read-out: Alexa FRET Ultra TR-FRET.

SMILES strings stand for the structures. Some results are limits rather than exact numbers.

T1 sequence (Q8NBP7 153-692): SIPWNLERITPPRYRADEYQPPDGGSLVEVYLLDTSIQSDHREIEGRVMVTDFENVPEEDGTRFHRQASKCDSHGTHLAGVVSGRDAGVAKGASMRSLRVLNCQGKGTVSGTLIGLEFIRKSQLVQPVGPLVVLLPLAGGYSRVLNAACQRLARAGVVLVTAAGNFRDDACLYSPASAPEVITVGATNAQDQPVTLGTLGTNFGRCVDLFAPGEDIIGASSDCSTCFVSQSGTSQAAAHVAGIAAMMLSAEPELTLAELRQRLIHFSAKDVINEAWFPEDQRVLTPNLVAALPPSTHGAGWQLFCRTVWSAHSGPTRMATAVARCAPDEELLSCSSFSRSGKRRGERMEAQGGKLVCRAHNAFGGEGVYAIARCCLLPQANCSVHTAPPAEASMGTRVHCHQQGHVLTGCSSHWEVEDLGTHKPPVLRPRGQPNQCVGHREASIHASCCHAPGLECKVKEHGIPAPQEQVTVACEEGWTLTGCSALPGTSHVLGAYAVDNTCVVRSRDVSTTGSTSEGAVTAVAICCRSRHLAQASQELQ

For `COc1ccc(C[C@@H]2NC(=O)[C@H]([C@@H](C)O)NC(=O)[C@@H]3[C@@H]4CCN3C(=O)[C@@H]3Cc5cn(c6ccc(F)cc56)CCCCCCN(Cc5ccc(cc5)CCNC(=O)[C@]5(C)CCCN5C2=O)C(=O)CCC(=O)N[C@@H](C)C(=O)N[C@H](CNC(=O)COCCOCCOCCOCCNC(=O)CCCCC[N+](C)(C)CCNC(=O)COCCOCCNC(=O)COCCOCCNC(=O)CC[C@@H](NC(=O)CCCCCCCCCCCCCCCCC(=O)O)C(=O)O)C(=O)N[C@@H](Cc2cccc(c2)CNC(=O)CO4)C(=O)N3)cc1` [Ex-28], the figures for the Ki in experiment [1] (setting [4]), in experiment [2] (setting [5]) and in experiment [3] (setting [6]) were less than 1260 pM, 13 pM and 10 pM, respectively.

On to `COc1ccc(C[C@@H]2NC(=O)[C@H]([C@@H](C)O)NC(=O)[C@@H]3[C@@H]4CCN3C(=O)[C@@H]3Cc5cn(c6ccc(F)cc56)CCCCCCN(Cc5ccc(cc5)CCNC(=O)[C@]5(C)CCCN5C2=O)C(=O)CCC(=O)N[C@@H](C)C(=O)N[C@H](CNC(=O)CCOCCOCC[N+](C)(C)CCNC(=O)COCCOCCNC(=O)COCCOCCNC(=O)CC[C@H](NC(=O)CC[C@H](NC(=O)CCCCCCCCCCCCCCC(=O)O)C(=O)O)C(=O)O)C(=O)N[C@@H](Cc2cccc(c2)CNC(=O)CO4)C(=O)N3)cc1` [Ex-34], for which the figures for the Ki in experiment [1] (setting [4]), in experiment [2] (setting [5]) and in experiment [3] (setting [6]) were less than 1260 pM, less than 6 pM and 3 pM, respectively.

In the case of `COc1ccc(C[C@@H]2NC(=O)[C@H]([C@@H](C)O)NC(=O)[C@@H]3[C@@H]4CCN3C(=O)[C@@H]3Cc5cn(c6ccc(F)cc56)CCCCCCN(Cc5ccc(cc5)CCNC(=O)[C@]5(C)CCCN5C2=O)C(=O)CCC(=O)N[C@@H](C)C(=O)N[C@H](CNC(=O)CCOCCOCC[N+](C)(C)CCNC(=O)COCCOCCNC(=O)COCCOCCNC(=O)CC[C@@H](NC(=O)CC[C@@H](NC(=O)CCCCCCCCCCCCCCCCC(=O)O)C(=O)O)C(=O)O)C(=O)N[C@@H](Cc2cccc(c2)CNC(=O)CO4)C(=O)N3)cc1` [Ex-49], the Ki in experiment [1] is less than 1260 pM; in experiment [2] (setting [5]), less than 6 pM; in experiment [3] (setting [6]), 3 pM.

Regarding `CCCCCCCCCCCCCCCC(=O)NCC[N+](C)(C)CCOCCOCCC(=O)NCCOCCOCC(=O)NCCOCCOCC(=O)NC[C@H]1NC(=O)[C@H](C)NC(=O)CCC(=O)N2CCCCCCn3cc(c4cc(F)ccc43)C[C@@H]3NC(=O)[C@H](Cc4cccc(c4)CNC(=O)CO[C@H]4CCN(C3=O)[C@@H]4C(=O)N[C@@H]([C@@H](C)O)C(=O)N[C@@H](Cc3ccc(OC)cc3)C(=O)N3CCC[C@@]3(C)C(=O)NCCc3ccc(cc3)C2)NC1=O` [Ex-38], the Ki was less than 1260 pM in experiment [1] (setting [4]), 13 pM in experiment [2] (setting [5]) and 12 pM in experiment [3] (setting [6]).

For `COc1ccc(C[C@@H]2NC(=O)[C@H]([C@@H](C)O)NC(=O)[C@@H]3[C@@H]4CCN3C(=O)[C@@H]3Cc5cn(c6ccc(F)cc56)CCCCCCN(Cc5ccc(cc5)CCNC(=O)[C@]5(C)CCCN5C2=O)C(=O)CCC(=O)N[C@@H](C)C(=O)N[C@H](CNC(=O)COCCOCCNC(=O)COCCOCCNC(=O)CCCCC[N+](C)(C)CCNC(=O)CC[C@H](NC(=O)CCCCCCCCCCCCCCCCC(=O)O)C(=O)O)C(=O)N[C@@H](Cc2cccc(c2)CNC(=O)CO4)C(=O)N3)cc1` [compound 30], the Ki is less than 1260 pM in experiment [1] (setting [4]), less than 6 pM in experiment [2] (setting [5]) and 4 pM in experiment [3] (setting [6]).

As to `COc1ccc(C[C@@H]2NC(=O)[C@H]([C@@H](C)O)NC(=O)[C@@H]3[C@@H]4CCN3C(=O)[C@@H]3Cc5cn(c6ccc(F)cc56)CCCCCCN(Cc5ccc(cc5)CCNC(=O)[C@]5(C)CCCN5C2=O)C(=O)CCC(=O)N[C@@H](C)C(=O)N[C@H](CNC(=O)COCCOCC[N+](C)(C)CCNC(=O)COCCOCCNC(=O)COCCOCCNC(=O)CC[C@H](NC(=O)CCCCCCCCOCCCCCCCCC(=O)O)C(=O)O)C(=O)N[C@@H](Cc2cccc(c2)CNC(=O)CO4)C(=O)N3)cc1` [Ex-50], the Ki in experiment [1] (setting [4]) is less than 1260 pM; in experiment [2], less than 6 pM; in experiment [3], 5 pM.

Regarding `COC(=O)CCCCCCCCCCCCCCCCC(=O)N[C@@H](CCC(=O)NCCOCCOCC(=O)NCCOCCOCC(=O)NCC[N+](C)(C)CCCCCC(=O)NC[C@H]1NC(=O)[C@H](C)NC(=O)CCC(=O)N2CCCCCCn3cc(c4cc(F)ccc43)C[C@@H]3NC(=O)[C@H](Cc4cccc(c4)CNC(=O)CO[C@H]4CCN(C3=O)[C@@H]4C(=O)N[C@@H]([C@@H](C)O)C(=O)N[C@@H](Cc3ccc(OC)cc3)C(=O)N3CCC[C@@]3(C)C(=O)NCCc3ccc(cc3)C2)NC1=O)C(=O)OC` [Ex-12], the Ki in experiment [1] (setting [4]) is less than 1260 pM; in experiment [2] (setting [5]), 14 pM; in experiment [3] (setting [6]), 7 pM.

Take `COc1ccc(C[C@@H]2NC(=O)[C@H]([C@@H](C)O)NC(=O)[C@@H]3[C@@H]4CCN3C(=O)[C@@H]3Cc5cn(c6ccc(F)cc56)CCCCCCN(Cc5ccc(cc5)CCNC(=O)[C@]5(C)CCCN5C2=O)C(=O)CCC(=O)N[C@@H](C)C(=O)N[C@H](CNC(=O)COCCOCC[N+](C)(C)CCOCCNC(=O)COCCOCCNC(=O)COCCOCCNC(=O)CC[C@H](NC(=O)CCCCCCCCCCCCCCC(=O)O)C(=O)O)C(=O)N[C@@H](Cc2cccc(c2)CNC(=O)CO4)C(=O)N3)cc1` [compound 45]: the Ki in experiment [1] (setting [4]) is less than 1260 pM; in experiment [2] (setting [5]) it was less than 6 pM; in experiment [3] (setting [6]), 2 pM.

As for `COc1ccc(C[C@@H]2NC(=O)[C@H]([C@@H](C)O)NC(=O)[C@@H]3[C@@H]4CCN3C(=O)[C@@H]3Cc5cn(c6ccc(F)cc56)CCCCCCN(Cc5ccc(cc5)CCNC(=O)[C@]5(C)CCCN5C2=O)C(=O)CCC(=O)N[C@@H](C)C(=O)N[C@H](CNC(=O)CCOCCOCC[N+](C)(C)CCNC(=O)COCCOCCNC(=O)COCCOCCNC(=O)CC[C@H](NC(=O)CC[C@H](NC(=O)CCCCCCCCCCCCCCCCC(=O)O)C(=O)O)C(=O)O)C(=O)N[C@@H](Cc2cccc(c2)CNC(=O)CO4)C(=O)N3)cc1` [Ex-10], the Ki in experiment [1] (setting [4]) is less than 1260 pM; in experiment [2], 8 pM; in experiment [3], 6 pM.

Turning to `COc1ccc(C[C@@H]2NC(=O)[C@H]([C@@H](C)O)NC(=O)[C@@H]3[C@@H]4CCN3C(=O)[C@@H]3Cc5cn(c6ccc(F)cc56)CCCCCCN(Cc5ccc(cc5)CCNC(=O)[C@]5(C)CCCN5C2=O)C(=O)CCC(=O)N[C@@H](C)C(=O)N[C@H](CNC(=O)COCCOCCNC(=O)CCOCCOCC[N+](C)(C)CCNC(=O)COCCOCCNC(=O)COCCOCCNC(=O)CC[C@H](NC(=O)CCCCCCCCCCCCCCCCC(=O)O)C(=O)O)C(=O)N[C@@H](Cc2cccc(c2)CNC(=O)CO4)C(=O)N3)cc1` [compound 32], the Ki is less than 1260 pM in experiment [1] (setting [4]), 9 pM in experiment [2] (setting [5]) and 11 pM in experiment [3] (setting [6]).

As for `COc1ccc(C[C@@H]2NC(=O)[C@H]([C@@H](C)O)NC(=O)[C@@H]3[C@@H]4CCN3C(=O)[C@@H]3Cc5cn(c6ccc(F)cc56)CCCCCCN(Cc5ccc(cc5)CCNC(=O)[C@]5(C)CCCN5C2=O)C(=O)CCC(=O)N[C@@H](C)C(=O)N[C@H](CNC(=O)CC[C@H](NC(=O)CCCCC[N+](C)(C)CCNC(=O)COCCOCCNC(=O)COCCOCCNC(=O)CC[C@H](NC(=O)CCCCCCCCCCCCCCCCC(=O)O)C(=O)O)C(=O)O)C(=O)N[C@@H](Cc2cccc(c2)CNC(=O)CO4)C(=O)N3)cc1` [compound 33], the Ki in experiment [1] (setting [4]) is less than 1260 pM; in experiment [2] (setting [5]), 14 pM; in experiment [3] (setting [6]), 16 pM.

For `COc1ccc(C[C@@H]2NC(=O)[C@H]([C@@H](C)O)NC(=O)[C@@H]3[C@@H]4CCN3C(=O)[C@@H]3Cc5cn(c6ccc(F)cc56)CCCCCCN(Cc5ccc(cc5)CCNC(=O)[C@]5(C)CCCN5C2=O)C(=O)CCC(=O)N[C@@H](C)C(=O)N[C@H](CNC(=O)CCOCCOCC[N+](C)(C)CCNC(=O)COCCOCCNC(=O)COCCOCCNC(=O)CC[C@H](NC(=O)CCCCCCCCCCCCCCC(=O)N[C@@H](CC(=O)O)C(=O)O)C(=O)O)C(=O)N[C@@H](Cc2cccc(c2)CNC(=O)CO4)C(=O)N3)cc1` [Ex-56], the values for the Ki in experiment [1] (setting [4]), in experiment [2] (setting [5]) and in experiment [3] (setting [6]) were less than 1260 pM, less than 6 pM and 4 pM, respectively.

In the case of `COc1ccc(C[C@@H]2NC(=O)[C@H]([C@@H](C)O)NC(=O)[C@@H]3[C@@H]4CCN3C(=O)[C@@H]3Cc5cn(c6ccc(F)cc56)CCCCCCN(Cc5ccc(cc5)CCNC(=O)[C@]5(C)CCCN5C2=O)C(=O)CCC(=O)N[C@@H](C)C(=O)N[C@H](CNC(=O)COCCOCCNC(=O)COCCOCCNC(=O)CCOCCOCC[N+](C)(C)CCNC(=O)CCCCCCCCCCCCCCC(=O)O)C(=O)N[C@@H](Cc2cccc(c2)CNC(=O)CO4)C(=O)N3)cc1` [Ex-39], the Ki in experiment [1] (setting [4]) is less than 1260 pM; in experiment [2] (setting [5]), less than 6 pM; in experiment [3] (setting [6]), 3 pM.
